Source: patent publication US8524745B2 (Allergan, Inc., priority 2011, dated 2013)

target: T1, CCR2 (Homo sapiens, UniProt P41597); assay: CCR2 calcium activity assay on FLIPR Tetra in HEK-Gqi5 cells stably expressing CCR2; assay type: cell-based
T1 construct: expressed in transfected cells
Description: HEK-Gqi5 cells stably expressing CCR2 were cultured in (DMEM high glucose, 10% FBS, 1% PSA, 400 μg/ml geneticin and 50 μg/ml hygromycin. Appropriate positive control chemokines (MCP-1, MIP1A or RANTES) was used as the positive control agonist for screening compound-induced calcium activity assayed on the FLIPR^Tetra. The drug plates were prepared in 384-well microplates using the EP3 and the MuItiPROBE robotic liquid handling systems. Compounds were synthesized and tested for CCR2 activity.

T1 sequence (P41597 whole entry, species assumed): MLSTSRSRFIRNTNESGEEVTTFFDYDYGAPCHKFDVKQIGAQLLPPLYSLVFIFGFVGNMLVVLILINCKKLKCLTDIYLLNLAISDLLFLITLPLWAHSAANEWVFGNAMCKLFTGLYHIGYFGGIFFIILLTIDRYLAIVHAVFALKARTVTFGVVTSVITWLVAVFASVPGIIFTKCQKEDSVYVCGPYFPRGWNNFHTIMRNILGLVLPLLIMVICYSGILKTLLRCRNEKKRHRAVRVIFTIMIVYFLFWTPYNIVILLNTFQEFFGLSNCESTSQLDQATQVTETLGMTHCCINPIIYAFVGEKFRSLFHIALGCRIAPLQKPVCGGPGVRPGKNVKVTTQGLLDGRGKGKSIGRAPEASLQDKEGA

Row | CCR2 % ANTAG [%] | IC50 [nM] | Compound
1 | 35 | 551 | CN(C)c1ccc(NS(=O)(=O)c2cccs2)c(NS(=O)(=O)c2ccc3c(c2)c(=O)sn3C)c1
2 | 79 | 2370 | Cn1sc(=O)c2cc(S(=O)(=O)N[C@@H]3CCCC[C@H]3NS(=O)(=O)c3cccs3)ccc21 (relative stereo) [rel-1-methyl-3-oxo-N-{(1R,2R)-2-[(2-thienylsulfonyl)amino]cyclohexyl}-1,3-dihydro-2,1-benzisothiazole-5-sulfonamide]
3 | 65 | 2180 | Cn1sc(=O)c2cc(S(=O)(=O)N[C@@H]3CCCC[C@@H]3NS(=O)(=O)c3cccs3)ccc21 (relative stereo) [rel-1-methyl-3-oxo-N-{(1R,2S)-2-[(2-thienylsulfonyl)amino]cyclohexyl}-1,3-dihydro-2,1-benzisothiazole-5-sulfonamide]
4 | 96 | 543 | Cn1sc(=O)c2cc(S(=O)(=O)N[C@@H]3CCCC[C@H]3NS(=O)(=O)c3ccc(Cl)c(C(F)(F)F)c3)ccc21 (relative stereo) [rel-N-[(1R,2R)-2-({[4-chloro-3-(trifluoromethyl)phenyl]sulfonyl}amino)cyclohexyl]-1-methyl-3-oxo-1,3-dihydro-2,1-benzisothiazole-5-sulfonamide]
5 | 46 | – | Cn1sc(=O)c2cc(S(=O)(=O)N[C@@H]3CCCC[C@H]3NC(=O)c3cccs3)ccc21 (relative stereo) [rel-N-[(1R,2R)-2-{[(1-methyl-3-oxo-1,3-dihydro-2,1-benzisothiazol-5-yl)sulfonyl]amino}cyclohexyl]thiophene-2-carboxamide]
6 | 93 | 1240 | Cn1sc(=O)c2cc(S(=O)(=O)N[C@@H]3CCCC[C@@H]3NS(=O)(=O)c3ccc(Cl)c(C(F)(F)F)c3)ccc21 (relative stereo) [rel-N-[(1R,2S)-2-({[4-chloro-3-(trifluoromethyl)phenyl]sulfonyl}amino)cyclohexyl]-1-methyl-3-oxo-1,3-dihydro-2,1-benzisothiazole-5-sulfonamide]
7 | 68 | 559 | CC(C)n1sc(=O)c2cc(S(=O)(=O)Nc3cccc4c3OC(F)(F)C(F)(F)O4)ccc21 [1-isopropyl-3-oxo-N-(2,2,3,3-tetrafluoro-2,3-dihydro-1,4-benzodioxin-5-yl)-1,3-dihydro-2,1-benzisothiazole-5-sulfonamide]
8 | 90 | 4320 | CC(C)n1sc(=O)c2cc(S(=O)(=O)Nc3ccccc3NS(=O)(=O)c3cccs3)ccc21 [1-isopropyl-3-oxo-N-{2-[(2-thienylsulfonyl)amino]phenyl}-1,3-dihydro-2,1-benzisothiazole-5-sulfonamide]
9 | 79 | 1660 | Cn1sc(=O)c2cc(S(=O)(=O)Nc3cc(Cl)c(Cl)cc3Cl)ccc21 [1-methyl-3-oxo-N-(2,4,5-trichlorophenyl)-1,3-dihydro-2,1-benzisothiazole-5-sulfonamide]
10 | 58 | 2530 | Cn1sc(=O)c2cc(S(=O)(=O)Nc3ccccc3NC(=O)Nc3cccs3)ccc21 [1-methyl-3-oxo-N-(2-{[(2-thienylamino)carbonyl]amino}phenyl)-1,3-dihydro-2,1-benzisothiazole-5-sulfonamide]
11 | 61 | – | Cn1sc(=O)c2cc(S(=O)(=O)Nc3ccccc3CNS(=O)(=O)c3cccs3)ccc21 [1-methyl-3-oxo-N-(2-{[(2-thienylsulfonyl)amino]methyl}phenyl)-1,3-dihydro-2,1-benzisothiazole-5-sulfonamide]
12 | 39 | – | Cn1sc(=O)c2cc(S(=O)(=O)NC3CCCN(S(=O)(=O)c4cccs4)C3)ccc21 (stereo not drawn) [1-methyl-3-oxo-N-[1-(2-thienylsulfonyl)piperidin-3-yl]-1,3-dihydro-2,1-benzisothiazole-5-sulfonamide]
13 | 22 | – | Cn1sc(=O)c2cc(S(=O)(=O)NC3CCN(S(=O)(=O)c4cccs4)C3)ccc21 (stereo not drawn) [1-methyl-3-oxo-N-[1-(2-thienylsulfonyl)pyrrolidin-3-yl]-1,3-dihydro-2,1-benzisothiazole-5-sulfonamide]
14 | 94 | 2210 | Cn1sc(=O)c2cc(S(=O)(=O)Nc3ccccc3NS(=O)(=O)c3cccc(C(F)(F)F)c3)ccc21 [1-methyl-3-oxo-N-[2-({[3-(trifluoromethyl)phenyl]sulfonyl}amino)phenyl]-1,3-dihydro-2,1-benzisothiazole-5-sulfonamide]
15 | 24 | 606 | Cn1sc(=O)c2cc(S(=O)(=O)Nc3ccccc3NS(=O)(=O)c3ccc(C(F)(F)F)cc3)ccc21 [1-methyl-3-oxo-N-[2-({[4-(trifluoromethyl)phenyl]sulfonyl}amino)phenyl]-1,3-dihydro-2,1-benzisothiazole-5-sulfonamide]
16 | 92 | 920 | Cn1sc(=O)c2cc(S(=O)(=O)Nc3cccc(OC(F)(F)F)c3)ccc21 [1-methyl-3-oxo-N-[3-(trifluoromethoxy)phenyl]-1,3-dihydro-2,1-benzisothiazole-5-sulfonamide]
17 | 84 | – | Cn1sc(=O)c2cc(S(=O)(=O)Nc3cccc(C(F)(F)F)c3)ccc21 [1-methyl-3-oxo-N-[3-(trifluoromethyl)phenyl]-1,3-dihydro-2,1-benzisothiazole-5-sulfonamide]
18 | 103 | 701 | Cn1sc(=O)c2cc(S(=O)(=O)Nc3cc(C(F)(F)F)ccc3NS(=O)(=O)c3cccs3)ccc21 [1-methyl-3-oxo-N-{2-[(2-thienylsulfonyl)amino]-5-(trifluoromethyl)phenyl}-1,3-dihydro-2,1-benzisothiazole-5-sulfonamide]
19 | 56 | 2180 | Cn1sc(=O)c2cc(S(=O)(=O)NCc3ccccc3NS(=O)(=O)c3cccs3)ccc21 [1-methyl-3-oxo-N-{2-[(2-thienylsulfonyl)amino]benzyl}-1,3-dihydro-2,1-benzisothiazole-5-sulfonamide]
20 | 83 | 1910 | Cn1sc(=O)c2cc(S(=O)(=O)Nc3cccnc3NS(=O)(=O)c3cccs3)ccc21 [1-methyl-3-oxo-N-{2-[(2-thienylsulfonyl)amino]pyridin-3-yl}-1,3-dihydro-2,1-benzisothiazole-5-sulfonamide]
21 | 90 | 1100 | Cn1sc(=O)c2cc(S(=O)(=O)Nc3ccccc3NS(=O)(=O)c3nnc[nH]3)ccc21 [1-methyl-3-oxo-N-{2-[(4H-1,2,4-triazol-3-ylsulfonyl)amino]phenyl}-1,3-dihydro-2,1-benzisothiazole-5-sulfonamide]
22 | 97 | 887 | Cn1sc(=O)c2cc(S(=O)(=O)Nc3ccccc3NS(=O)(=O)c3ccccc3)ccc21 [1-methyl-3-oxo-N-{2-[(phenylsulfonyl)amino]phenyl}-1,3-dihydro-2,1-benzisothiazole-5-sulfonamide]
23 | 77 | – | Cn1sc(=O)c2cc(S(=O)(=O)Nc3ccccc3NS(=O)(=O)c3cccnc3)ccc21 [1-methyl-3-oxo-N-{2-[(pyridin-3-ylsulfonyl)amino]phenyl}-1,3-dihydro-2,1-benzisothiazole-5-sulfonamide]
24 | 96 | 2180 | Cn1sc(=O)c2cc(S(=O)(=O)Nc3cc4ccccc4cc3NS(=O)(=O)c3cccs3)ccc21 [1-methyl-3-oxo-N-{3-[(2-thienylsulfonyl)amino]-2-naphthyl}-1,3-dihydro-2,1-benzisothiazole-5-sulfonamide]
